10 compounds from ChEMBL document CHEMBL1201862, “PubChem BioAssay data set” (2004) can be followed below.

Structures are written as SMILES.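 In this assay, cells in 96-well plates receive the compound at five concentrations for 48 hours. Endpoints are linearly interpolated between the surrounding concentrations. GI50: concentration for 50% inhibition of growth.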 The source made the active and inactive calls. Rule as the data show it: active = GI50 up to about 1.1 µM and inactive = higher.

Test systems include A549; CAKI-1; EKVX; HCT-116; HOP-92; Hs-578T; K562; MDA-MB-435; MOLT-4; NCI/ADR-RES; OVCAR-4; RPMI-8226; RXF 393; SF-539; SK-MEL-2; SK-OV-3; SNB-19; SR; TK-10; UACC-62.
Holding throughout (experiment): inhibition of tumour cell growth, NCI panel, 48 h

`COc1cccc2c3cccc(OC)c3c3[nH]cnc3c12`: the GI50 in the experiment with A549 was 1.57 µM (inactive); in the experiment with CAKI-1, 16.9 µM (inactive); in the experiment with EKVX, 14.7 µM (inactive); in the experiment on HCT-116 it was 1.63 µM (inactive); in the experiment on HOP-92, 6.04 µM (inactive); in the experiment with Hs-578T, 0.394 µM (active). Besides, the GI50 in the experiment on K562 was 2.08 µM (inactive); in the experiment with MDA-MB-435, 2.06 µM (inactive); with MOLT-4, 2.29 µM (inactive); in the experiment on NCI/ADR-RES it was 3.09 µM (inactive); in the experiment with OVCAR-4, 5.45 µM (inactive); in the experiment with RPMI-8226 it was 2.53 µM (inactive). Besides, the GI50 with RXF 393 was 1.78 µM (inactive); in the experiment on SF-539, 1.32 µM (inactive); in the experiment with SK-MEL-2 it was 20.1 µM (inactive); in the experiment on SK-OV-3, 18.7 µM (inactive); in the experiment with SNB-19, 5.01 µM (inactive); in the experiment on SR it was 2.16 µM (inactive). Further, the GI50 in the experiment with TK-10 was 1.65 µM (inactive); in the experiment on UACC-62 it was 16.7 µM (inactive).

With `C=C1[C@H](OCC(C)C)[C@@H](OC(=O)C(C)CC)[C@@H](O)C(C)(C)/C=C/[C@H](C)C(=O)[C@@]2(O)C[C@H](C)[C@H](O)[C@@H]2[C@H]1OC(=O)C(C)CC` (some centres undefined), the GI50 was 1.38 µM (inactive) in the experiment with A549; 3.32 µM (inactive) in the experiment on CAKI-1; 8.83 µM (inactive) in the experiment with EKVX; 4.88 µM (inactive) with HCT-116; 1.79 µM (inactive) in the experiment with HOP-92; 1.66 µM (inactive) in the experiment on Hs-578T. Moreover, the GI50 in the experiment on K562 was 0.991 µM (active); in the experiment on MDA-MB-435, 1.7 µM (inactive); with MOLT-4 it was 2 µM (inactive); in the experiment with NCI/ADR-RES, 6.82 µM (inactive); with OVCAR-4, 5.45 µM (inactive); in the experiment with RPMI-8226, 0.516 µM (active). Moreover, the GI50 in the experiment on RXF 393 was 6.14 µM (inactive); in the experiment on SF-539, 3.05 µM (inactive); with SK-MEL-2, 4.99 µM (inactive); in the experiment on SK-OV-3, 19.7 µM (inactive); with SNB-19, 14.5 µM (inactive); with SR, 3.84 µM (inactive). For the same compound, the GI50 with TK-10 is 4 µM (inactive); with UACC-62, 3.92 µM (inactive).

With `COc1cc2c(cc1OCCCCCOc1cc3c(cc1OC)C(=O)N1CCC[C@H]1CN3)N=C[C@@H]1CCCN1C2=O`, the GI50 in the experiment on A549 is 5.46 µM (inactive); with CAKI-1, 9.48 µM (inactive); in the experiment on EKVX it was 39.6 µM (inactive); with HCT-116 it was 4.85 µM (inactive); with HOP-92 it was 17.2 µM (inactive); with Hs-578T it was 6.75 µM (inactive). For the same compound, the GI50 in the experiment on K562 is 3.49 µM (inactive); in the experiment on MDA-MB-435, 6.85 µM (inactive); in the experiment with MOLT-4 it was 2.4 µM (inactive); with NCI/ADR-RES it was 23.4 µM (inactive); in the experiment on OVCAR-4, 25.6 µM (inactive); with RXF 393 it was 17 µM (inactive). Further, the GI50 is 3.18 µM (inactive) in the experiment on SF-539; 3.27 µM (inactive) with SK-MEL-2; 30.5 µM (inactive) in the experiment with SK-OV-3; 20 µM (inactive) in the experiment on SNB-19; 0.249 µM (active) in the experiment on SR; 19.5 µM (inactive) in the experiment with TK-10. Besides, the GI50 in the experiment on UACC-62 was 1.56 µM (inactive).

Turning to `O=C(NCc1cccnc1)NCc1cccnc1`, the GI50 in the experiment with A549, in the experiment with CAKI-1, in the experiment on EKVX, in the experiment on HCT-116, with HOP-92 and in the experiment with Hs-578T was > 100 µM (inactive) throughout. The GI50 with K562, in the experiment on MDA-MB-435, in the experiment on NCI/ADR-RES, with OVCAR-4, in the experiment on RPMI-8226 and in the experiment with RXF 393 was > 100 µM (inactive) each time. The GI50 in the experiment with SF-539, in the experiment on SK-MEL-2, with SK-OV-3, with SNB-19, in the experiment with SR and in the experiment with TK-10 was > 100 µM (inactive) each time. For the same compound, the GI50 with UACC-62 was > 100 µM (inactive).

On to `Nc1ncn2c(n1)nc1ccccc12`, for which the GI50 with A549 is > 100 µM (inactive); with CAKI-1 it was > 100 µM (inactive); with EKVX, 54.8 µM (inactive); in the experiment with HCT-116, > 100 µM (inactive); in the experiment on HOP-92, 37.2 µM (inactive); with Hs-578T, > 100 µM (inactive). The GI50 in the experiment on K562, in the experiment on MDA-MB-435, in the experiment on MOLT-4, in the experiment on NCI/ADR-RES, in the experiment on OVCAR-4 and in the experiment on RPMI-8226 was > 100 µM (inactive) in each case. In addition, the GI50 is 18.6 µM (inactive) with RXF 393; > 100 µM (inactive) in the experiment on SF-539; > 100 µM (inactive) in the experiment on SK-MEL-2; > 100 µM (inactive) in the experiment with SK-OV-3; > 100 µM (inactive) in the experiment with SNB-19; > 100 µM (inactive) with SR. The GI50 with TK-10 and with UACC-62 was > 100 µM (inactive) in each case.

For the compound `CC1(C)C(O)c2ccccc2OC1N1CCN(C2Oc3ccccc3C(O)C2(C)C)CC1` (centres undefined), the GI50 with A549, in the experiment on CAKI-1, with EKVX, with HCT-116, in the experiment on HOP-92 and with Hs-578T was > 100 µM (inactive) throughout. Besides, the GI50 in the experiment on K562, in the experiment with MDA-MB-435, in the experiment on MOLT-4, in the experiment with NCI/ADR-RES, with OVCAR-4 and in the experiment on RPMI-8226 was > 100 µM (inactive) throughout. Besides, the GI50 in the experiment with RXF 393 is > 100 µM (inactive); in the experiment on SF-539, > 100 µM (inactive); with SK-OV-3, > 100 µM (inactive); in the experiment on SNB-19, > 100 µM (inactive); with SR, > 100 µM (inactive); in the experiment on TK-10 it was > 10 µM (inactive). For the same compound, the GI50 in the experiment on UACC-62 is > 100 µM (inactive).

With `Cc1nnc2c3c(-c4ccccc4)c(-c4ccccc4)oc3nc(N(C)C)n12`, the GI50 was 37.2 µM (inactive) in the experiment on A549; > 100 µM (inactive) in the experiment on CAKI-1; > 100 µM (inactive) with EKVX; 24.8 µM (inactive) with HCT-116; > 100 µM (inactive) in the experiment on HOP-92; 21.3 µM (inactive) in the experiment with Hs-578T. Moreover, the GI50 in the experiment on K562 is 36.1 µM (inactive); with MDA-MB-435, 36.5 µM (inactive); in the experiment on MOLT-4 it was 22.9 µM (inactive); in the experiment on NCI/ADR-RES, > 100 µM (inactive); in the experiment with OVCAR-4, > 100 µM (inactive); in the experiment with RPMI-8226, 20.1 µM (inactive). Also, the GI50 in the experiment on RXF 393 is 73.5 µM (inactive); in the experiment with SF-539 it was 86.5 µM (inactive); in the experiment with SK-OV-3 it was > 100 µM (inactive); in the experiment with SNB-19, > 100 µM (inactive); in the experiment with SR it was 16.7 µM (inactive); in the experiment on TK-10 it was > 100 µM (inactive). The GI50 in the experiment with UACC-62 was 39.2 µM (inactive).

Regarding `N#Cc1c(Cl)nc2ccccc2c1N=[N+]=[N-]`, the GI50 with A549 was 16.6 µM (inactive); in the experiment on CAKI-1, 1.68 µM (inactive); in the experiment on EKVX it was 2.25 µM (inactive); with HCT-116, 1.66 µM (inactive); in the experiment on HOP-92, 1.7 µM (inactive); with Hs-578T, 5.81 µM (inactive). For the same compound, the GI50 is 0.705 µM (active) in the experiment with K562; 7.38 µM (inactive) with MDA-MB-435; 1.08 µM (active) with MOLT-4; 9.33 µM (inactive) in the experiment with NCI/ADR-RES; 1.91 µM (inactive) in the experiment with OVCAR-4; 2.11 µM (inactive) in the experiment with RPMI-8226. Besides, the GI50 is 1.44 µM (inactive) with RXF 393; 2.15 µM (inactive) in the experiment on SF-539; 1.91 µM (inactive) in the experiment on SK-MEL-2; 15.5 µM (inactive) in the experiment on SK-OV-3; 14.8 µM (inactive) in the experiment with SNB-19; 0.875 µM (active) in the experiment with SR. Also, the GI50 with TK-10 is 4.82 µM (inactive); with UACC-62, 2.63 µM (inactive).

For the compound `CNc1ncc(-c2nnnn2-c2ccccc2)c(CN(C)C)n1`, the GI50 with A549, in the experiment with CAKI-1, in the experiment on EKVX, in the experiment with HCT-116, in the experiment on HOP-92 and with Hs-578T was > 100 µM (inactive) throughout. The GI50 in the experiment on K562, in the experiment on MDA-MB-435, in the experiment with MOLT-4, with NCI/ADR-RES, in the experiment with RPMI-8226 and with RXF 393 was > 100 µM (inactive) throughout. Moreover, the GI50 in the experiment on SF-539, with SK-MEL-2, in the experiment with SK-OV-3, with SNB-19, with SR and in the experiment with TK-10 was > 100 µM (inactive) throughout. The GI50 in the experiment on UACC-62 is > 100 µM (inactive).

`O=C(NCCCCNCCCNC(=O)c1ccccc1)c1ccccc1`: the GI50 in the experiment on A549, in the experiment on EKVX, with HCT-116, with HOP-92, in the experiment with Hs-578T and in the experiment with K562 was > 100 µM (inactive) in each case. For the same compound, the GI50 with MDA-MB-435, in the experiment on MOLT-4, in the experiment with NCI/ADR-RES, in the experiment on OVCAR-4, with RPMI-8226 and with RXF 393 was > 100 µM (inactive) throughout. The GI50 in the experiment with SF-539, in the experiment on SK-MEL-2, in the experiment on SK-OV-3, in the experiment with SNB-19, in the experiment with SR and in the experiment with TK-10 was > 100 µM (inactive) in each case. In the experiment on UACC-62, the GI50 was > 100 µM (inactive).
